Assay results reported in patent US20120029187A1, “HALOALKYLSULFONANILIDE DERIVATIVE” (Nissan Chemical Industries, Ltd., priority 2009, published 2012).

Key:
Type in all cases: in vivo
[1] = tested on: ducksalad; assay: Test Example 2: herbicidal effects during the vegetation period under submerged conditions; conditions: treatment during the vegetation period under submerged conditions; dose 2.52 g/a
Method in brief: (§1)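 Barnyardgrass, bulrush and ducksalad were co-sown in alluvial soil flooded to 4 cm and grown in a greenhouse at 25 to 30° C. At the 1- or 2-leaf stage, water-diluted emulsifiable concentrates went onto the water surface at set doses (g/a). Herbicidal effect was scored three weeks later on a graded scale.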

[2] = tested on: barnyardgrass; assay: as above; conditions: treatment during the vegetation period under submerged conditions; dose 2.52 g/a
Method in brief: as §1

[3] = tested on: bulrush; assay: as above; conditions: treatment during the vegetation period under submerged conditions; dose 2.52 g/a
Method in brief: as §1

[4] = tested on: ducksalad; assay: Test Example 1: herbicidal effects in preemergence treatment under submerged conditions; conditions: dose 2.52 g/a
Method in brief: (§2)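 Submerged conditions, 4 cm water over alluvial soil. Weeds sown and 2.5-leaf rice transplanted; compound applied preemergence to water surface, doses in g per are. Greenhouse, 25 to 30° C., three weeks, then 0–5 mortality rating.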

[5] = tested on: barnyardgrass; assay: as above; conditions: dose 2.52 g/a
Method in brief: as §2

[6] = tested on: bulrush; assay: as above; conditions: dose 2.52 g/a
Method in brief: as §2

[7] = tested on: common ragweed; assay: Test Example 4: herbicidal effect in foliage treatment; conditions: dose 6.3 g/a, three weeks after application
Method in brief: (§3)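 Herbicidal effect was rated on an evaluation scale three weeks after treatment. Plants had been raised 14 days at 25 to 30° C in sterilized diluvial soil, then received foliar sprays of emulsifiable concentrate diluted in water at predetermined doses expressed as g per are.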

[8] = tested on: common lambsquater; assay: as above; conditions: dose 6.3 g/a, three weeks after application
Method in brief: as §3

[9] = tested on: beadstraw; assay: as above; conditions: dose 6.3 g/a, three weeks after application
Method in brief: as §3

[10] = tested on: redroot pigweed; assay: as above; conditions: dose 6.3 g/a, three weeks after application
Method in brief: as §3

[11] = tested on: giant foxtail; assay: as above; conditions: dose 6.3 g/a, three weeks after application
Method in brief: as §3

[12] = tested on: water foxtail; assay: as above; conditions: dose 6.3 g/a, three weeks after application
Method in brief: as §3

[13] = tested on: barnyardgrass; assay: as above; conditions: dose 6.3 g/a, three weeks after application
Method in brief: as §3

[14] = tested on: wild oat; assay: as above; conditions: dose 6.3 g/a, three weeks after application
Method in brief: as §3

[15] = tested on: common chickweed; assay: as above; conditions: dose 6.3 g/a, three weeks after application
Method in brief: as §3

[16] = tested on: large crabgrass; assay: as above; conditions: dose 6.3 g/a, three weeks after application
Method in brief: as §3

[17] = tested on: Italian ryegrass; assay: as above; conditions: dose 6.3 g/a, three weeks after application
Method in brief: as §3

[18] = tested on: common ragweed; assay: Test Example 3: herbicidal effects in soil treatment; conditions: dose 6.3 g/a
Method in brief: (§4)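 Seeds were sown in sterilized diluvial soil and covered with about 1.5 cm of soil. Compounds, formulated as emulsifiable concentrates and diluted with water, were sprayed evenly over the soil surface at set doses in g/a. Herbicidal effect was scored on a rating scale three weeks later.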

[19] = tested on: common lambsquater; assay: as above; conditions: dose 6.3 g/a
Method in brief: as §4

[20] = tested on: redroot pigweed; assay: as above; conditions: dose 6.3 g/a
Method in brief: as §4

[21] = tested on: giant foxtail; assay: as above; conditions: dose 6.3 g/a
Method in brief: as §4

[22] = tested on: water foxtail; assay: as above; conditions: dose 6.3 g/a
Method in brief: as §4

[23] = tested on: barnyardgrass; assay: as above; conditions: dose 6.3 g/a
Method in brief: as §4

[24] = tested on: wild oat; assay: as above; conditions: dose 6.3 g/a
Method in brief: as §4

[25] = tested on: common chickweed; assay: as above; conditions: dose 6.3 g/a
Method in brief: as §4

[26] = tested on: large crabgrass; assay: as above; conditions: dose 6.3 g/a
Method in brief: as §4

[27] = tested on: Italian ryegrass; assay: as above; conditions: dose 6.3 g/a
Method in brief: as §4

[28] = tested on: transplanted rice; assay: Test Example 1: preemergence treatment under submerged conditions, effect on crop; conditions: dose 2.52 g/a
Method in brief: as §2

`CCC(=O)N(c1ccccc1CN1COC(C)CC1=O)S(=O)(=O)C(F)(F)F` (centres unmarked) [II-5] was tested, and the “C: ducksalad, herbicidal effect (evaluation scale 0-5)” value (“C: ducksalad, herbicidal effect” below) [1] was 5 (mortality of 90% or above (nearly complete death)), the “A: barnyardgrass, herbicidal effect (evaluation scale 0-5)” value [2] was 5 (mortality of 90% or above (nearly complete death)) and the “B: bulrush, herbicidal effect (evaluation scale 0-5)” value (“B: bulrush, herbicidal effect” for short) [3] was 5 (mortality of 90% or above (nearly complete death)). The “C: ducksalad, herbicidal effect” value [4] was 5 (mortality of 90% or above (nearly complete death)), the “A: barnyardgrass, herbicidal effect (evaluation scale 0-5)” value [5] was 5 (mortality of 90% or above (nearly complete death)) and the “B: bulrush, herbicidal effect” value [6] was 5 (mortality of 90% or above (nearly complete death)). For the same compound, the “J: common ragweed, herbicidal effect” value [7] was 5 (mortality of 90% or above (nearly complete death)), the “L: common lambsquater, herbicidal effect” value [8] was 3 (mortality of at least 40% and less than 70%) and the “O: beadstraw, herbicidal effect” value [9] was 0 (mortality of less than 5% (almost ineffective)). For the same compound, the “K: redroot pigweed, herbicidal effect” value [10] was 0 (mortality of less than 5% (almost ineffective)), the “E: giant foxtail, herbicidal effect” value [11] was 5 (mortality of 90% or above (nearly complete death)) and the “G: water foxtail, herbicidal effect” value [12] was 5 (mortality of 90% or above (nearly complete death)). For the same compound, the “A: barnyardgrass, herbicidal effect” value [13] was 5 (mortality of 90% or above (nearly complete death)), the “F: wild oat, herbicidal effect” value [14] was 0 (mortality of less than 5% (almost ineffective)) and the “N: common chickweed, herbicidal effect” value [15] was 3 (mortality of at least 40% and less than 70%). The “D: large crabgrass, herbicidal effect” value [16] was 5 (mortality of 90% or above (nearly complete death)), the “H: Italian ryegrass, herbicidal effect” value [17] was 3 (mortality of at least 40% and less than 70%) and the “J: common ragweed, herbicidal effect (evaluation scale 0-5)” value [18] was 4 (mortality of at least 70% and less than 90%). For the same compound, the “L: common lambsquater, herbicidal effect (evaluation scale 0-5)” value [19] was 4 (mortality of at least 70% and less than 90%), the “K: redroot pigweed, herbicidal effect (evaluation scale 0-5)” value [20] was 1 (mortality of at least 5% and less than 20%) and the “E: giant foxtail, herbicidal effect (evaluation scale 0-5)” value [21] was 3 (mortality of at least 40% and less than 70%). For the same compound, the “G: water foxtail, herbicidal effect (evaluation scale 0-5)” value [22] was 5 (mortality of 90% or above (nearly complete death)), the “A: barnyardgrass, herbicidal effect (evaluation scale 0-5)” value [23] was 5 (mortality of 90% or above (nearly complete death)) and the “F: wild oat, herbicidal effect (evaluation scale 0-5)” value (“F: wild oat … (evaluation scale 0-5)” below) [24] was 0 (mortality of less than 5% (almost ineffective)). The “N: common chickweed, herbicidal effect (evaluation scale 0-5)” value [25] was 5 (mortality of 90% or above (nearly complete death)), the “D: large crabgrass, herbicidal effect (evaluation scale 0-5)” value [26] was 5 (mortality of 90% or above (nearly complete death)) and the “H: Italian ryegrass, herbicidal effect (evaluation scale 0-5)” value [27] was 4 (mortality of at least 70% and less than 90%).
In the case of `CCOC(=O)N(c1ccccc1CN1COC(C)(C)CC1=O)S(=O)(=O)C(F)(F)F` [II-23, 6,6-dimethyl-3-[2-(N-ethoxycarbonyl-N-trifluoromethanesulfonyl)aminobenzyl]-1,3-oxazinan-4-one], the “C: ducksalad, herbicidal effect” value [1] is reported as 5 (mortality of 90% or above (nearly complete death)), the “A: barnyardgrass, herbicidal effect (evaluation scale 0-5)” value [2] is reported as 5 (mortality of 90% or above (nearly complete death)) and the “B: bulrush, herbicidal effect” value [3] is reported as 5 (mortality of 90% or above (nearly complete death)). The “C: ducksalad, herbicidal effect” value [4] was 5 (mortality of 90% or above (nearly complete death)), the “A: barnyardgrass, herbicidal effect (evaluation scale 0-5)” value [5] was 5 (mortality of 90% or above (nearly complete death)) and the “B: bulrush, herbicidal effect” value [6] was 5 (mortality of 90% or above (nearly complete death)). The “J: common ragweed, herbicidal effect” value [7] was 5 (mortality of 90% or above (nearly complete death)), the “L: common lambsquater, herbicidal effect” value [8] was 4 (mortality of at least 70% and less than 90%) and the “O: beadstraw, herbicidal effect” value [9] was 5 (mortality of 90% or above (nearly complete death)). For the same compound, the “E: giant foxtail, herbicidal effect” value [11] was 4 (mortality of at least 70% and less than 90%), the “G: water foxtail, herbicidal effect” value [12] was 5 (mortality of 90% or above (nearly complete death)) and the “A: barnyardgrass, herbicidal effect” value [13] was 5 (mortality of 90% or above (nearly complete death)). For the same compound, the “F: wild oat, herbicidal effect” value [14] was 0 (mortality of less than 5% (almost ineffective)), the “N: common chickweed, herbicidal effect” value [15] was 4 (mortality of at least 70% and less than 90%) and the “D: large crabgrass, herbicidal effect” value [16] was 5 (mortality of 90% or above (nearly complete death)). The “H: Italian ryegrass, herbicidal effect” value [17] was 4 (mortality of at least 70% and less than 90%), the “J: common ragweed, herbicidal effect (evaluation scale 0-5)” value [18] was 5 (mortality of 90% or above (nearly complete death)) and the “L: common lambsquater, herbicidal effect (evaluation scale 0-5)” value [19] was 2 (mortality of at least 20% and less than 40%). For the same compound, the “E: giant foxtail, herbicidal effect (evaluation scale 0-5)” value [21] was 5 (mortality of 90% or above (nearly complete death)), the “G: water foxtail, herbicidal effect (evaluation scale 0-5)” value [22] was 5 (mortality of 90% or above (nearly complete death)) and the “A: barnyardgrass, herbicidal effect (evaluation scale 0-5)” value [23] was 5 (mortality of 90% or above (nearly complete death)). For the same compound, the “F: wild oat … (evaluation scale 0-5)” value [24] was 0 (mortality of less than 5% (almost ineffective)), the “N: common chickweed, herbicidal effect (evaluation scale 0-5)” value [25] was 4 (mortality of at least 70% and less than 90%) and the “D: large crabgrass, herbicidal effect (evaluation scale 0-5)” value [26] was 5 (mortality of 90% or above (nearly complete death)). For the same compound, the “H: Italian ryegrass, herbicidal effect (evaluation scale 0-5)” value [27] was 4 (mortality of at least 70% and less than 90%) and the “a: transplanted rice, effect on crop (evaluation scale 0-5)” value [28] was 0 (mortality of less than 5% (almost ineffective)).
In the case of `CC1CC(=O)N(Cc2ccccc2N(C(=O)c2ccccc2)S(=O)(=O)C(F)(F)F)CO1` (centres unmarked) [II-6], the “C: ducksalad, herbicidal effect” value [1] is reported as 4 (mortality of at least 70% and less than 90%), the “A: barnyardgrass, herbicidal effect (evaluation scale 0-5)” value [2] is reported as 5 (mortality of 90% or above (nearly complete death)) and the “B: bulrush, herbicidal effect” value [3] is reported as 5 (mortality of 90% or above (nearly complete death)). The “C: ducksalad, herbicidal effect” value [4] was 5 (mortality of 90% or above (nearly complete death)), the “A: barnyardgrass, herbicidal effect (evaluation scale 0-5)” value [5] was 5 (mortality of 90% or above (nearly complete death)) and the “B: bulrush, herbicidal effect” value [6] was 5 (mortality of 90% or above (nearly complete death)). The “J: common ragweed, herbicidal effect” value [7] was 5 (mortality of 90% or above (nearly complete death)), the “L: common lambsquater, herbicidal effect” value [8] was 1 (mortality of at least 5% and less than 20%) and the “O: beadstraw, herbicidal effect” value [9] was 2 (mortality of at least 20% and less than 40%). For the same compound, the “K: redroot pigweed, herbicidal effect” value [10] was 0 (mortality of less than 5% (almost ineffective)), the “E: giant foxtail, herbicidal effect” value [11] was 4 (mortality of at least 70% and less than 90%) and the “G: water foxtail, herbicidal effect” value [12] was 5 (mortality of 90% or above (nearly complete death)). For the same compound, the “A: barnyardgrass, herbicidal effect” value [13] was 5 (mortality of 90% or above (nearly complete death)), the “F: wild oat, herbicidal effect” value [14] was 0 (mortality of less than 5% (almost ineffective)) and the “N: common chickweed, herbicidal effect” value [15] was 1 (mortality of at least 5% and less than 20%). For the same compound, the “D: large crabgrass, herbicidal effect” value [16] was 4 (mortality of at least 70% and less than 90%), the “H: Italian ryegrass, herbicidal effect” value [17] was 3 (mortality of at least 40% and less than 70%) and the “J: common ragweed, herbicidal effect (evaluation scale 0-5)” value [18] was 4 (mortality of at least 70% and less than 90%). For the same compound, the “L: common lambsquater, herbicidal effect (evaluation scale 0-5)” value [19] was 3 (mortality of at least 40% and less than 70%), the “K: redroot pigweed, herbicidal effect (evaluation scale 0-5)” value [20] was 0 (mortality of less than 5% (almost ineffective)) and the “E: giant foxtail, herbicidal effect (evaluation scale 0-5)” value [21] was 4 (mortality of at least 70% and less than 90%). The “G: water foxtail, herbicidal effect (evaluation scale 0-5)” value [22] was 5 (mortality of 90% or above (nearly complete death)), the “A: barnyardgrass, herbicidal effect (evaluation scale 0-5)” value [23] was 5 (mortality of 90% or above (nearly complete death)) and the “F: wild oat … (evaluation scale 0-5)” value [24] was 0 (mortality of less than 5% (almost ineffective)). The “D: large crabgrass, herbicidal effect (evaluation scale 0-5)” value [26] was 4 (mortality of at least 70% and less than 90%), the “H: Italian ryegrass, herbicidal effect (evaluation scale 0-5)” value [27] was 3 (mortality of at least 40% and less than 70%) and the “a: transplanted rice, effect on crop (evaluation scale 0-5)” value [28] was 0 (mortality of less than 5% (almost ineffective)).
